Values after ≈ are worked out from the molar mass of the structure shown.
Tests used:
Type in all cases: functional
[1] = system: Mycobacterium tuberculosis; assay: Antimicrobial activity against Mycobacterium tuberculosis H37Rv infected macrophage model
[2] = system: Mycobacterium tuberculosis; assay: Antimicrobial activity against Mycobacterium tuberculosis H37Rv
[3] = system: Mycobacterium tuberculosis; assay: Ratio of INH MIC to compound MIC for Mycobacterium tuberculosis H37Rv
[4] = system: Mycobacterium tuberculosis; assay: Antimicrobial activity against Mycobacterium tuberculosis H4
[5] = system: Mycobacterium tuberculosis; assay: Antimicrobial activity against Mycobacterium tuberculosis
[6] = system: Mycobacterium tuberculosis; assay: Antimicrobial activity against Mycobacterium tuberculosis H37Rv by agar dilution method relative to isonicotinoyl hydrazide

SMILES	MIC [2]	MIC [4] [µg/mL]	MIC [5] [µg/mL]	also measured
O=C1NC(NNC(=O)c2ccncc2)=N/C1=C\c1cccc(Cl)c1	–	–	–	MIC [1]: 0.8 µg/mL (≈ 2.34 µM)
COc1ccc(C2SCC(=O)N2NC(=O)c2ccncc2)cc1O (centres undefined)	0.31 µg/mL	–	–	–
COc1ccc(C2C(Cl)C(=O)N2NC(=O)c2ccncc2)cc1O (centres undefined)	0.31 µg/mL	–	–	–
COc1cc(C2=NN(C(=O)c3ccncc3)C(c3ccc(O)cc3)C2)ccc1OCC(=O)O (centres undefined)	0.12 µM	–	–	Ratio [3]: 5.6
O=C(c1ccncc1)N1N=C(c2ccccn2)CC1c1cccc(Cl)c1 (centres undefined)	–	8 (≈ 22 µM)	8 (≈ 22 µM)	–
O=C(c1ccncc1)N1N=C(c2ccccn2)CC1c1ccc(Cl)cc1 (centres undefined)	–	8 (≈ 22 µM)	8 (≈ 22 µM)	–
Cc1ccccc1C1CC(c2ccccn2)=NN1C(=O)c1ccncc1 (centres undefined)	–	8 (≈ 23.4 µM)	8 (≈ 23.4 µM)	–
O=C(c1ccncc1)N1N=C(c2ccccn2)CC1c1ccccc1 (centres undefined)	–	8 (≈ 24.4 µM)	8 (≈ 24.4 µM)	–
O=C(c1ccncc1)N1N=C(c2ccccn2)CC1c1ccccc1Cl (centres undefined)	–	8 (≈ 22 µM)	8 (≈ 22 µM)	–
O=C(NNC(=S)Nc1ccccc1C(F)(F)F)c1ccncc1	0.58 µM	–	–	Ratio [6]: 1.24
NNC(=O)c1ccncc1 [ISONIAZID]	–	–	0.05 (≈ 0.365 µM)	–
CO[C@H]1/C=C/O[C@@]2(C)Oc3c(C)c(O)c4c(O)c(c(/C=N/N5CCN(C)CC5)c(O)c4c3C2=O)NC(=O)/C(C)=C\C=C\[C@H](C)[C@H](O)[C@@H](C)[C@@H](O)[C@@H](C)[C@H](OC(C)=O)[C@@H]1C [RIFAMPIN]	0.2 µg/mL	–	–	–
